The text below walks through data of ChEMBL document CHEMBL1201862, “PubChem BioAssay data set” (2004).

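Step 1: Grow cells in 96-well plates. Step 2: Expose to compound for 48 hours at 5 concentrations. Step 3: Interpolate endpoints linearly; if unreached, use highest concentration. GI50 marks 50% less growth.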 The source made the active and inactive calls. Rule as the data show it: active = GI50 up to about 1.1 µM and inactive = higher. A value given as a limit tells only on which side of the number the result lay.

Test systems include A498; ACHN; HCC 2998; HOP-92; KM12; LOX IMVI; MOLT-4; Malme-3M; NCI-H23; NCI-H460; OVCAR-3; OVCAR-4; SF-539; SK-MEL-28; SR; SW-620; UO-31; CCRF-CEM.
Holding throughout (assay): inhibition of tumour cell growth, NCI panel, 48 h

On to `N=C(N)NS(=O)(=O)c1ccc(Nc2c3ccccc3nc3c(C(=O)Nc4ccc(S(N)(=O)=O)cc4)ccc(Cl)c23)cc1`, for which the GI50 with A498, in the assay with ACHN, in the assay with HCC 2998, with HOP-92, in the assay on KM12 and in the assay with LOX IMVI was > 100 µM (inactive) in each case. Besides, the GI50 with MOLT-4, in the assay with Malme-3M, in the assay on NCI-H23, with NCI-H460, in the assay with OVCAR-3 and in the assay on OVCAR-4 was > 100 µM (inactive) each time. Further, the GI50 with SF-539, in the assay with SK-MEL-28, with SR, with SW-620 and with UO-31 was > 100 µM (inactive) throughout.
As to `COc1ccc(-c2cc(=O)c3cc(O)ccc3o2)c(OC)c1OC`, the GI50 in the assay on ACHN was 19.5 µM (inactive); in the assay on CCRF-CEM, 4.73 µM (inactive); with HCC 2998 it was 35.6 µM (inactive); with HOP-92, 32.4 µM (inactive); in the assay with KM12, 28.2 µM (inactive); with LOX IMVI, 21.7 µM (inactive). For the same compound, the GI50 with Malme-3M was 66.5 µM (inactive); with NCI-H23 it was 36.8 µM (inactive); with OVCAR-3 it was 18.4 µM (inactive); in the assay with OVCAR-4, 27.2 µM (inactive); in the assay on SF-539, 68.5 µM (inactive); in the assay on SK-MEL-28 it was 53.7 µM (inactive). In addition, the GI50 in the assay with SR was 12.7 µM (inactive); in the assay with SW-620, 40.8 µM (inactive).
With `C=C1C(=O)OC2C1CC[C@H](C)C13OC(=O)CC1[C@@]23C` (stereo partly specified), the GI50 with A498, in the assay with ACHN, in the assay on CCRF-CEM, in the assay with HCC 2998, in the assay with HOP-92 and with KM12 was > 100 µM (inactive) throughout. The GI50 in the assay on MOLT-4, with Malme-3M, in the assay with NCI-H23, with NCI-H460, with OVCAR-3 and with SF-539 was > 100 µM (inactive) each time. The GI50 in the assay with SK-MEL-28, with SR, in the assay with SW-620 and with UO-31 was > 100 µM (inactive) in each case.
Regarding `CN(C)c1ccccc1CC(c1c[nH]c2ccccc12)c1c[nH]c2ccccc12`, the GI50 in the assay on A498 was 17.1 µM (inactive); in the assay with ACHN, 8.36 µM (inactive); in the assay with CCRF-CEM, 9.51 µM (inactive); in the assay with HCC 2998, 9.46 µM (inactive); with KM12, 4.36 µM (inactive); in the assay on LOX IMVI it was 11.8 µM (inactive). In addition, the GI50 with MOLT-4 was 4.35 µM (inactive); in the assay with Malme-3M, 17.1 µM (inactive); with NCI-H23, 6.85 µM (inactive); with NCI-H460 it was 4.72 µM (inactive); with OVCAR-3, 12.8 µM (inactive); in the assay on OVCAR-4, 9.06 µM (inactive). Further, the GI50 in the assay on SF-539 was 17.2 µM (inactive); in the assay on SR it was 5.46 µM (inactive); in the assay on SW-620 it was 6.7 µM (inactive); in the assay with UO-31, 10.9 µM (inactive).
As to `CC1C2C=C(O)C(=O)C(C2=O)C1c1ccccc1` (stereo unspecified), the GI50 in the assay with A498, with ACHN, in the assay on CCRF-CEM, with HCC 2998, with HOP-92 and in the assay on KM12 was > 100 µM (inactive) throughout. The GI50 in the assay with LOX IMVI, in the assay on MOLT-4, in the assay on Malme-3M, in the assay on NCI-H23, in the assay with OVCAR-3 and with OVCAR-4 was > 100 µM (inactive) in each case. Also, the GI50 in the assay on SF-539, with SK-MEL-28, with SR, with SW-620 and in the assay with UO-31 was > 100 µM (inactive) each time.
As to `CC(C)(C)C(=C[S+]([O-])/N=C/c1ccccc1)C(C)(C)C` (stereo unspecified), the GI50 with A498 was 36.4 µM (inactive); in the assay on ACHN, 36.8 µM (inactive); in the assay on CCRF-CEM, 17.8 µM (inactive); with HOP-92, 19.7 µM (inactive); with KM12 it was 44.6 µM (inactive); with LOX IMVI, 18.8 µM (inactive). The GI50 in the assay on MOLT-4 was 14 µM (inactive); in the assay with Malme-3M, 22.3 µM (inactive); in the assay with NCI-H23, 48 µM (inactive); with NCI-H460, 24.8 µM (inactive); in the assay with OVCAR-3, 34.1 µM (inactive); with OVCAR-4, 21.4 µM (inactive). In addition, the GI50 in the assay with SF-539 was > 100 µM (inactive); with SK-MEL-28 it was > 100 µM (inactive); with SR, 24.7 µM (inactive); with SW-620, 50 µM (inactive); in the assay with UO-31 it was 27.2 µM (inactive).
For `CC1=C(C(=O)Nc2ccccc2)C(c2cccc3ccccc23)C(C(=O)Nc2ccccc2)=C(C)N1`, the GI50 in the assay on A498 is 24.1 µM (inactive); in the assay on ACHN it was 24.2 µM (inactive); in the assay with CCRF-CEM, 26.7 µM (inactive); in the assay with HCC 2998, 20.4 µM (inactive); in the assay on HOP-92, 24 µM (inactive); in the assay on LOX IMVI it was 16.7 µM (inactive). Further, the GI50 is 0.767 µM (active) with MOLT-4; 18.8 µM (inactive) in the assay on Malme-3M; 21.7 µM (inactive) in the assay on NCI-H23; 12.8 µM (inactive) with OVCAR-3; > 10 µM (inactive) in the assay with OVCAR-4; 20.4 µM (inactive) in the assay on SF-539. Besides, the GI50 in the assay with SK-MEL-28 is 18 µM (inactive); in the assay with SR, 3.11 µM (inactive); with SW-620 it was 22.4 µM (inactive); in the assay on UO-31, 21.6 µM (inactive).
Consider `CC(C)c1cc(C(C)C)c(S(=O)(=O)N=[N+]=[N-])c(C(C)C)c1`, for which the GI50 in the assay with ACHN is > 100 µM (inactive); in the assay on CCRF-CEM it was 34.9 µM (inactive); in the assay with HCC 2998 it was > 100 µM (inactive); in the assay on HOP-92, > 100 µM (inactive); in the assay on KM12, > 100 µM (inactive); in the assay with LOX IMVI, 47 µM (inactive). The GI50 in the assay with MOLT-4 is 21.3 µM (inactive); with Malme-3M it was > 100 µM (inactive); with NCI-H23, > 100 µM (inactive); with NCI-H460, > 100 µM (inactive); in the assay with OVCAR-3, > 100 µM (inactive); in the assay on OVCAR-4 it was 81.8 µM (inactive). Besides, the GI50 in the assay on SF-539 was > 100 µM (inactive); with SK-MEL-28 it was > 100 µM (inactive); with SR it was 31.6 µM (inactive); with SW-620 it was > 100 µM (inactive); in the assay on UO-31 it was > 100 µM (inactive).
On to `O=S1(=O)OCCOS(=O)(=O)C1(Br)Cc1ccccc1`, for which the GI50 in the assay on A498, in the assay with ACHN, in the assay on CCRF-CEM, in the assay with HCC 2998, in the assay with HOP-92 and in the assay with LOX IMVI was > 100 µM (inactive) throughout. Further, the GI50 in the assay on MOLT-4, in the assay on Malme-3M, in the assay with NCI-H23, in the assay on NCI-H460, in the assay with OVCAR-3 and with OVCAR-4 was > 100 µM (inactive) throughout. For the same compound, the GI50 in the assay on SF-539, in the assay on SK-MEL-28, in the assay with SR, in the assay with SW-620 and in the assay with UO-31 was > 100 µM (inactive) in each case.
Turning to `CCOC(=O)c1c(-c2[nH]c(C(=O)OCc3ccccc3)c(C)c2C(=O)OCC)[nH]c(C(=O)OCc2ccccc2)c1C`, the GI50 is > 100 µM (inactive) in the assay with A498; 58.2 µM (inactive) in the assay with ACHN; > 100 µM (inactive) with HCC 2998; 55.2 µM (inactive) with HOP-92; > 100 µM (inactive) with LOX IMVI; > 100 µM (inactive) in the assay with MOLT-4. The GI50 was > 100 µM (inactive) in the assay with Malme-3M; > 100 µM (inactive) in the assay on NCI-H460; > 100 µM (inactive) in the assay on OVCAR-3; 48.4 µM (inactive) in the assay with SF-539; > 100 µM (inactive) in the assay on SK-MEL-28; > 100 µM (inactive) in the assay with SR. The GI50 in the assay with SW-620 and with UO-31 was > 100 µM (inactive) in each case.
As for `CC(=O)C1(O)CC2(c3ccccc3)C(=O)C1(c1ccccc1)C(c1ccccc1)=C2c1ccccc1` (stereo unspecified), the GI50 in the assay with A498 was > 100 µM (inactive); with CCRF-CEM, > 100 µM (inactive); in the assay on HOP-92, 80.9 µM (inactive); in the assay with KM12 it was > 100 µM (inactive); in the assay with LOX IMVI, > 100 µM (inactive); in the assay with MOLT-4, 39.6 µM (inactive). Further, the GI50 with Malme-3M is > 100 µM (inactive); in the assay on NCI-H23, 36.6 µM (inactive); with NCI-H460, > 100 µM (inactive); with OVCAR-3, > 100 µM (inactive); in the assay with OVCAR-4, 13.5 µM (inactive); in the assay with SF-539 it was > 100 µM (inactive). Further, the GI50 in the assay on SR was 85.1 µM (inactive); in the assay with SW-620 it was > 100 µM (inactive); with UO-31 it was 58.5 µM (inactive).
For `CCC1C(C)c2c([nH]c3ccccc23)C2C(=O)N(c3ccccc3)C(=O)C21` (stereo unspecified), the GI50 was 18.2 µM (inactive) in the assay with ACHN; 18 µM (inactive) in the assay on CCRF-CEM; 15.5 µM (inactive) with HCC 2998; 15 µM (inactive) in the assay with KM12; 15.7 µM (inactive) in the assay with LOX IMVI; 9.31 µM (inactive) with MOLT-4. For the same compound, the GI50 in the assay on Malme-3M was 16.6 µM (inactive); in the assay with NCI-H23 it was 18.6 µM (inactive); with NCI-H460, 14.3 µM (inactive); with OVCAR-3, 13.3 µM (inactive); in the assay on OVCAR-4 it was 13.4 µM (inactive); in the assay on SF-539 it was 18.7 µM (inactive). Moreover, the values for the GI50 in the assay with SK-MEL-28, in the assay on SR and in the assay on SW-620 were 17.7 µM (inactive), 8.41 µM (inactive) and 16.5 µM (inactive), respectively.
